Results reported in patent publication US20120132797A1, “MEANS AND METHODS FOR DIAGNOSING THYROID DISORDERS” (BASF SE, priority 2009, published 2012).

Test system: Wistar (Crl:WI(Han)) rats
Test: Mass spectrometry-based plasma metabolite profiling of rats treated with known inducers of thyroid function impairment
Assay type: in vivo, rat
Conditions: female rats, ratio of group medians vs controls; for 5-O-Methylsphingosine / Asparagine / Behenic acid (C22:0) / Citrate / Docosahexaenoic acid (C22:cis[4,7,10,13,16]6) / Glycine / Ketoleucine / Lysophosphatidylcholine (C18:2) / Phosphatidylcholine (C16:1, C18:2) / Phosphatidylcholine (C18:2, C20:4) / Pyruvate / Tricosanoic acid (C23:0) / erythro-Sphingosine / threo-Sphingosine: Table 1
From the text: At the beginning of the study the animals were 10-11 weeks old. Each dose group in the studies consisted of five rats per sex, and was compared with controls (10 rats per sex). […] The dose levels were chosen to show the typical overt (high dose) and slight (low dose) toxicological symptoms of the substances as described in the literature or in BASF internal study reports.
Blood samples were withdrawn from the retro-orbital sinus in all rats under isoflurane anesthesia on study days 7, 14 and 28 after a fasting period of 16-20 hours.
For mass spectrometry-based metabolite profiling analysis, plasma samples were extracted by a proprietary method which delivers a polar and a non-polar fraction. For GC-MS analysis, the non-polar fraction was treated with methanol under acidic conditions to yield the fatty acid methyl esters. Both fractions were further derivatised with Omethyl-hydroxyamine hydrochloride and pyridine to convert oxo groups to Omethyloximes and subsequently with a silylating agent before analysis.
In LC-MS/MS analysis, both fractions were reconstituted in appropriate solvent mixtures. HPLC was performed by gradient elution on reversed phase separation columns. For mass spectrometric detection metanomics proprietary technology was applied, which allows target and high sensitivity MRM (Multiple Reaction Monitoring) profiling in parallel to a full screen analysis. […] Moreover, several hundred additional analytes giving a fingerprint of the sample were included in the methods.
Following comprehensive analytical validation steps, the data for each analyte were normalized against data from pool samples. These samples were run in parallel through the whole process to account for process variability.
The sex- and day-stratified heteroscedastic t-test (“Welch test”) was applied to compare treated groups with respective controls. p-Values and ratios of corresponding group medians were collected as metabolic profiles and fed into a database.

N#Cc1ccc(CC(=NNC(=O)Nc2ccc(OC(F)(F)F)cc2)c2cccc(C(F)(F)F)c2)cc1 (mixture of isomers) [Metaflumizone]
5-O-Methylsphingosine (fh7 (study day 7)): 0.99 | Asparagine (fh7 (study day 7)): 0.75 | Behenic acid (C22:0) (fh7 (study day 7)): 1.12 | Citrate (fh7 (study day 7)): 0.84 | Docosahexaenoic acid (C22:cis[4,7,10,13,16]6) (fh7 (study day 7)): 1.52 | Glycine (fh7 (study day 7)): 0.93 | Ketoleucine (fh7 (study day 7)): 0.97 | Lysophosphatidylcholine (C18:2) (fh7 (study day 7)): 0.88 | Phosphatidylcholine (C16:1, C18:2) (fh7 (study day 7)): 1.14 | Phosphatidylcholine (C18:2, C20:4) (fh7 (study day 7)): 1.14 | Pyruvate (fh7 (study day 7)): 0.64 | Tricosanoic acid (C23:0) (fh7 (study day 7)): 1.28 | erythro-Sphingosine (fh7 (study day 7)): 1.25 | threo-Sphingosine (fh7 (study day 7)): 1.29 | Sphingomyelin (d18:1, C16:0) (fh7 (study day 7), Table 1, first listing): 1.29 | Sphingomyelin (d18:1, C16:0) (fh7 (study day 7), Table 1, second listing): 0.97 | 5-O-Methylsphingosine (fh14 (study day 14)): 1.42 | Asparagine (fh14 (study day 14)): 0.57 | Behenic acid (C22:0) (fh14 (study day 14)): 1.28 | Citrate (fh14 (study day 14)): 0.62 | Docosahexaenoic acid (C22:cis[4,7,10,13,16]6) (fh14 (study day 14)): 2.54 | Glycine (fh14 (study day 14)): 0.97 | Ketoleucine (fh14 (study day 14)): 0.81 | Lysophosphatidylcholine (C18:2) (fh14 (study day 14)): 1.20 | Phosphatidylcholine (C16:1, C18:2) (fh14 (study day 14)): 1.40 | Phosphatidylcholine (C18:2, C20:4) (fh14 (study day 14)): 1.16 | Pyruvate (fh14 (study day 14)): 0.54 | Tricosanoic acid (C23:0) (fh14 (study day 14)): 1.41 | erythro-Sphingosine (fh14 (study day 14)): 1.50 | threo-Sphingosine (fh14 (study day 14)): 1.27 | Sphingomyelin (d18:1, C16:0) (fh14 (study day 14), Table 1, first listing): 1.45 | Sphingomyelin (d18:1, C16:0) (fh14 (study day 14), Table 1, second listing): 1.10 | 5-O-Methylsphingosine (fh28 (study day 28)): 2.07 | Asparagine (fh28 (study day 28)): 1.17 | Behenic acid (C22:0) (fh28 (study day 28)): 2.03 | Citrate (fh28 (study day 28)): 0.88 | Docosahexaenoic acid (C22:cis[4,7,10,13,16]6) (fh28 (study day 28)): 1.98 | Glycine (fh28 (study day 28)): 1.63 | Ketoleucine (fh28 (study day 28)): 0.81 | Lysophosphatidylcholine (C18:2) (fh28 (study day 28)): 1.11 | Phosphatidylcholine (C16:1, C18:2) (fh28 (study day 28)): 1.86 | Phosphatidylcholine (C18:2, C20:4) (fh28 (study day 28)): 1.20 | Pyruvate (fh28 (study day 28)): 0.72 | Tricosanoic acid (C23:0) (fh28 (study day 28)): 2.56 | erythro-Sphingosine (fh28 (study day 28)): 1.82 | threo-Sphingosine (fh28 (study day 28)): 1.89 | Sphingomyelin (d18:1, C16:0) (fh28 (study day 28), Table 1, first listing): 1.38 | Sphingomyelin (d18:1, C16:0) (fh28 (study day 28), Table 1, second listing): 1.15
